Laboratory results reported in US8809341B2, “2,4-pyrimidinediamine compounds and uses as anti-proliferative agents” (Rigel Pharmaceuticals, Inc., priority 2003, dated 2014).
pIC50: −log10 of the molar value.

Assays:
[1] = test system: H1299 cells; experiment: in vitro antiproliferation assay, H1299 (lung); assay type: cell-based
Procedure, shortened: (§1)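 IC50 values came from standard antiproliferation testing in cultured tumour cells; the A549 and H1299 lines are of lung origin.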

[2] = test system: A549 cells; experiment: in vitro antiproliferation assay, A549 (lung); assay type: cell-based
Procedure, shortened: as §1

[3] = Table 5, in vitro antiproliferation, H1299 (lung) cells
[4] = Table 5, in vitro antiproliferation, A549 (lung) cells
[5] = IC50 class against H1299 (lung) tumor cells
[6] = IC50 class against A549 (lung) tumor cells
[7] = H1299 (lung) cells, in vitro antiproliferation
[8] = A549 (lung) cells, in vitro antiproliferation
[9] = Homo sapiens, NCI-H1299, IC50 class against H1299 (lung) tumor cells
[10] = Homo sapiens, IC50 class against A549 (lung) tumor cells
[11] = H1299 (lung) cells, antiproliferation
[12] = A549 (lung) cells, antiproliferation
[13] = in vitro antiproliferation, H1299 (lung) cells, Table 4, compounds with no designated stereochemistry tested as racemate
[14] = in vitro antiproliferation, A549 (lung) cells, Table 4, compounds with no designated stereochemistry tested as racemate

CN(c1ccc2c(c1)OCCO2)c1nc(Nc2cccc(-c3ncco3)c2)ncc1F [compound 549]
pIC50 [1, 3]: ≥ 4.70
pIC50 [2, 4]: ≥ 4.70

CCN(CC)CCNC(=O)c1ccc(Nc2ncc(F)c(NC3CCCC3)n2)cc1 [compound 176]
pIC50 [1, 5]: ≥ 4.70
pIC50 [2, 6]: ≥ 4.70

Fc1cnc(Nc2ccc(C(F)(F)F)cc2)nc1Nc1ccc(C(F)(F)F)cc1 [compound 701]
pIC50 [1, 7]: < 4.70
pIC50 [2, 8]: < 4.70

CN1CCN(c2ccc(Nc3ncc(F)c(Nc4cccc(Nc5ncc[nH]5)c4)n3)cc2)CC1 [compound 1056]
pIC50 [1, 9]: < 4.70
pIC50 [2, 10]: < 4.70

OCc1cc(CO)cc(Nc2ncc(F)c(Nc3ccc(Cl)c(Cl)c3)n2)c1 [compound 844]
pIC50 [1, 7]: ≥ 4.70
pIC50 [2, 8]: ≥ 4.70

COc1ccc(Nc2nc(Nc3ccc(N4CCN(C(C)=O)CC4)cc3)ncc2F)cc1OC [compound 863]
pIC50 [1, 7]: ≥ 4.70
pIC50 [2, 8]: ≥ 4.70

COc1ccc(Nc2ncc(F)c(Nc3ccc(OC)cc3)n2)cc1 [compound 702]
pIC50 [1, 7]: ≥ 4.70
pIC50 [2, 8]: ≥ 4.70

COc1cc(Nc2nc(Nc3ccc4c(cnn4C(C)(C)CC4CCCCC4)c3)ncc2F)ccc1F [compound 1093]
pIC50 ([1]; H1299 (lung) cells): ≥ 4.70
pIC50 ([2]; A549 (lung) cells): ≥ 4.70

COc1ccc(N(C)c2nc(Nc3cc(C)c(OC)c(Cl)c3)ncc2F)cc1Cl [compound 904]
pIC50 [1, 11]: < 4.70
pIC50 [2, 12]: < 4.70

COC(=O)N1CCN(c2ccc(Nc3ncc(F)c(Nc4cccc(Nc5ncc[nH]5)c4)n3)cc2)CC1 [compound 1057]
pIC50 [1, 9]: < 4.70
pIC50 [2, 10]: < 4.70

COc1ccc(Nc2nc(Nc3cc(-c4ncco4)cc(C(F)(F)F)c3)ncc2F)cc1OC [compound 889]
pIC50 [1, 11]: ≥ 4.70
pIC50 [2, 12]: ≥ 4.70

Cc1cc(C)cc(Nc2ncc(F)c(N(C)c3ccc4c(c3)N(C)C(=O)C(C)(C)O4)n2)c1 [compound 324]
pIC50 [1, 13]: < 4.70
pIC50 [2, 14]: ≥ 4.70

CN1CCN(c2cccc(Nc3ncc(F)c(NC4CC(C)(C)N(C)C(C)(C)C4)n3)c2)CC1 [compound 179]
pIC50 [1, 5]: ≥ 4.70
pIC50 [2, 6]: ≥ 4.70

Cc1cc(O)cc(Nc2ncc(F)c(Nc3ccc4c(c3)OCCO4)n2)c1 [compound 521]
pIC50 [1, 3]: < 4.70
pIC50 [2, 4]: ≥ 4.70

COc1ccc(Nc2nc(Nc3cc(CO)cc(CO)c3)ncc2F)cc1Cl [compound 843]
pIC50 [1, 7]: ≥ 4.70
pIC50 [2, 8]: ≥ 4.70

COc1cc(Nc2nc(Nc3ccc4cnn(C(C)(C)CC5CCC5)c4c3)ncc2F)ccc1F [compound 1105]
pIC50 ([1]; H1299 (lung) cells): ≥ 4.70
pIC50 ([2]; A549 (lung) cells): ≥ 4.70

Fc1ccc(Nc2ncc(F)c(Nc3ccc(F)cc3)n2)cc1 [compound 720]
pIC50 [1, 7]: < 4.70
pIC50 [2, 8]: ≥ 4.70

COc1cc(Nc2nc(Nc3ccc4c(cnn4C(C)(C)CC4CC4)c3)ncc2F)ccc1F [compound 1109]
pIC50 ([1]; H1299 (lung) cells): ≥ 4.70
pIC50 ([2]; A549 (lung) cells): ≥ 4.70

O=C(COc1cccc(Nc2ncc(F)c(Nc3ccc(N4CCOCC4)cc3)n2)c1)NC1CC1 [compound 988]
pIC50 [1, 11]: ≥ 4.70
pIC50 [2, 12]: ≥ 4.70

CN1CCN(c2ccc(Nc3ncc(F)c(NC(C)(C)C)n3)cc2Cl)CC1 [compound 222]
pIC50 [1, 5]: ≥ 4.70
pIC50 [2, 6]: ≥ 4.70

CN1CCN(c2ccc(Nc3ncc(F)c(Nc4cc(C(C)(C)C)[nH]n4)n3)cc2)CC1 [compound 204]
pIC50 [1, 9]: ≥ 4.70
pIC50 [2, 10]: ≥ 4.70

COc1ccc(Nc2nc(Nc3ccc4cnn(C(C)(C)CC5CCCCC5)c4c3)ncc2F)cc1Cl [compound 1094]
pIC50 ([1]; H1299 (lung) cells): ≥ 4.70
pIC50 ([2]; A549 (lung) cells): ≥ 4.70

COc1cc(Nc2ncc(F)c(Nc3ccc4c(c3)OC(F)(F)C(F)(F)O4)n2)cc(OC)c1 [compound 532]
pIC50 [1, 3]: ≥ 4.70
pIC50 [2, 4]: ≥ 4.70

Cc1cc(Nc2ncc(F)c(NC3CCC3)n2)ccc1N1CCN(C)CC1 [compound 166]
pIC50 [1, 5]: ≥ 4.70
pIC50 [2, 6]: ≥ 4.70

CCCCn1ncc2ccc(Nc3ncc(F)c(Nc4ccc5c(c4)NC(=O)C(C)(C)O5)n3)cc21 [compound 1088]
pIC50 ([1]; H1299 (lung) cells): ≥ 4.70
pIC50 ([2]; A549 (lung) cells): ≥ 4.70

CCCCn1ncc2cc(Nc3ncc(F)c(Nc4ccc(OC)c(Cl)c4)n3)ccc21 [compound 1082]
pIC50 ([1]; H1299 (lung) cells): < 4.70
pIC50 ([2]; A549 (lung) cells): ≥ 4.70

COc1ccc(Nc2ncc(F)c(Nc3cccc(O)c3)n2)cc1OC [compound 969]
pIC50 [1, 11]: ≥ 4.70
pIC50 [2, 12]: ≥ 4.70

CCOC(=O)COc1cccc(Nc2ncc(F)c(Nc3ccc4c(c3)OCCO4)n2)c1 [compound 491]
pIC50 [1, 3]: ≥ 4.70
pIC50 [2, 4]: < 4.70

COc1ccc(Nc2ncc(F)c(Nc3ccc4c(c3)NC(=O)CS4)n2)cc1F [compound 290]
pIC50 [1, 13]: ≥ 4.70
pIC50 [2, 14]: ≥ 4.70

CN1CCN(c2cccc(Nc3ncc(F)c(Nc4ccc5c(n4)NCCO5)n3)c2)CC1 [compound 609]
pIC50 [1, 5]: ≥ 4.70
pIC50 [2, 6]: ≥ 4.70

Cc1cc(Nc2ncc(F)c(Nc3cc(C4CC4)[nH]n3)n2)ccc1N1CCN(C)CC1 [compound 213]
pIC50 [1, 9]: ≥ 4.70
pIC50 [2, 10]: ≥ 4.70

COc1cc(Nc2nc(Nc3cccc(N4CCN(C(C)=O)CC4)c3)ncc2F)cc(OC)c1 [compound 861]
pIC50 [1, 7]: ≥ 4.70
pIC50 [2, 8]: ≥ 4.70

CCN(CC)CCNC(=O)c1ccc(Nc2ncc(F)c(N(C)c3ccc(Cl)c(Cl)c3)n2)cc1 [compound 1031]
pIC50 [1, 11]: ≥ 4.70
pIC50 [2, 12]: ≥ 4.70

CCCn1ncc2cc(Nc3ncc(F)c(Nc4ccc5c(c4)NC(=O)C(C)(C)O5)n3)ccc21 [compound 1076]
pIC50 ([1]; H1299 (lung) cells): ≥ 4.70
pIC50 ([2]; A549 (lung) cells): ≥ 4.70

COc1cc(C(N)=O)c(Nc2ncc(F)c(NC3CCCCC3)n2)cc1OC(=O)c1ccccc1 [compound 1164]
pIC50 ([1]; Homo sapiens, NCI-H1299, H1299 (lung) cells): ≥ 4.70
pIC50 ([2]; Homo sapiens, A549 (lung) cells): ≥ 4.70

COc1cc(Nc2nc(Nc3cc(CO)cc(CO)c3)ncc2F)cc(OC)c1 [compound 842]
pIC50 [1, 7]: ≥ 4.70
pIC50 [2, 8]: ≥ 4.70

C[C@@H]1Oc2ccc(Nc3nc(Nc4cccc(-c5cnco5)c4)ncc3F)cc2NC1=O [compound 240]
pIC50 [1, 13]: < 4.70
pIC50 [2, 14]: ≥ 4.70

CC(=O)c1cc(Nc2ncc(F)c(Nc3cccc(O)c3)n2)cc(-c2ncco2)c1 [compound 888]
pIC50 [1, 11]: ≥ 4.70
pIC50 [2, 12]: ≥ 4.70

CCOC(=O)N1CCC(Nc2nc(Nc3ccc(N4CCN(C)CC4)c(C)c3)ncc2F)CC1 [compound 188]
pIC50 [1, 5]: ≥ 4.70
pIC50 [2, 6]: ≥ 4.70

CNC(=O)COc1c(C)cc(Nc2ncc(F)c(Nc3cc(OC)cc(OC)c3)n2)cc1C [compound 902]
pIC50 [1, 11]: ≥ 4.70
pIC50 [2, 12]: ≥ 4.70

CCOC(=O)N1CCC(Nc2nc(Nc3cccc(N4CCN(C)CC4)c3)ncc2F)CC1 [compound 186]
pIC50 [1, 5]: ≥ 4.70
pIC50 [2, 6]: ≥ 4.70

COc1ccc(Nc2nc(Nc3ccc4cnn(C(C)(C)CC5CC5)c4c3)ncc2F)cc1Cl [compound 1110]
pIC50 ([1]; H1299 (lung) cells): ≥ 4.70
pIC50 ([2]; A549 (lung) cells): ≥ 4.70

CNC(=O)COc1cccc(Nc2ncc(F)c(Nc3cccc(CN)c3)n2)c1 [compound 970]
pIC50 [1, 11]: ≥ 4.70
pIC50 [2, 12]: ≥ 4.70

Fc1cc(F)cc(Nc2ncc(F)c(Nc3ccc4c(c3)OCCO4)n2)c1 [compound 524]
pIC50 [1, 3]: < 4.70
pIC50 [2, 4]: < 4.70

CCOC(=O)N1CCN(c2cccc(Nc3ncc(F)c(Nc4cccc(Nc5ncc[nH]5)c4)n3)c2)CC1 [compound 1055]
pIC50 [1, 9]: < 4.70
pIC50 [2, 10]: < 4.70

CNC(=O)COc1cccc(Nc2ncc(F)c(N(C)c3ccc(OC)c(OC)c3)n2)c1 [compound 870]
pIC50 [1, 11]: < 4.70
pIC50 [2, 12]: < 4.70

Cc1cc(N(C)c2nc(Nc3cccc(-c4cnco4)c3)ncc2F)cc(C)c1Cl [compound 914]
pIC50 [1, 11]: < 4.70
pIC50 [2, 12]: < 4.70

CCOC(=O)COc1cccc(Nc2ncc(F)c(Nc3cc(C)c(O)c(Cl)c3)n2)c1 [compound 952]
pIC50 [1, 11]: ≥ 4.70
pIC50 [2, 12]: < 4.70

COc1cc(Nc2ncc(F)c(Nc3ccc4c(c3)OC(F)(F)O4)n2)cc(C(F)(F)F)c1 [compound 567]
pIC50 [1, 3]: ≥ 4.70
pIC50 [2, 4]: ≥ 4.70

COc1ccc(N(C)c2nc(Nc3cc(C)cc(C)c3)ncc2F)cc1OC [compound 864]
pIC50 [1, 7]: ≥ 4.70
pIC50 [2, 8]: ≥ 4.70

O=C(COc1cccc(Nc2ncc(F)c(Nc3ccc(N4CCOCC4)cc3)n2)c1)NC1CCC1 [compound 990]
pIC50 [1, 11]: ≥ 4.70
pIC50 [2, 12]: ≥ 4.70

C=CCNC(=O)COc1cccc(Nc2nc(Nc3cccc(OCC(=O)NC)c3)ncc2F)c1 [compound 791]
pIC50 [1, 7]: ≥ 4.70
pIC50 [2, 8]: ≥ 4.70

CNS(=O)(=O)c1ccc(Nc2nc(Nc3cc(OC)cc(OC)c3)ncc2F)cc1OC [compound 884]
pIC50 [1, 11]: ≥ 4.70
pIC50 [2, 12]: ≥ 4.70

COc1cc(Nc2nc(Nc3cc(Cl)cc(Cl)c3)ncc2F)cc(C(F)(F)F)c1 [compound 823]
pIC50 [1, 7]: ≥ 4.70
pIC50 [2, 8]: ≥ 4.70
